According to patent publication US7981401B2, “Diuretic aerosols and methods of making and using them” (priority 2002, dated 2011):
Each block holds one molecule with its values, some of them ahead of it.

Legend:
[1] = Volatilization on flashbar and HPLC purity analysis of the condensation aerosol; assay type: physicochemical; details: heated to about 400° C. within about 200 ms, 15 L/min air
Source text: Purity of a diuretic containing aerosol may be determined using a number of different methods. It should be noted that when the term “purity” is used, it refers to the percentage of aerosol minus the percent byproduct produced in its formation. Byproducts for example, are those unwanted products produced during vaporization. For example, byproducts include thermal degradation products as well as any unwanted metabolites of the active compound or compounds. Examples of suitable methods for determining aerosol purity are described in Sekine et al., Journal of Forensic Science 32:1271-1280 (1987) and in Martin et al., Journal of Analytic Toxicology 13:158-162 (1989).
One suitable method involves the use of a trap. In this method, the aerosol is collected in a trap in order to determine the percent or fraction of byproduct. Any suitable trap may be used. Suitable traps include filters, glass wool, impingers, solvent traps, cold traps, and the like. Filters are often most desirable. The trap is then typically extracted with a solvent, e.g. acetonitrile, and the extract subjected to analysis by any of a variety of analytical methods known in the art, for example, gas, liquid, and high performance liquid chromatography particularly useful.
(§1) About 1.1 mg of ethacrynic acid (MW 303, melting point 122° C., oral dose 25 mg) was dip coated onto the stainless steel surface of a flashbar apparatus at a thickness of about 1.32 μm. (The flashbar is a cylinder 3.5 cm long and 1.3 cm in diameter consisting of a hollow tube of 0.005″ thick stainless steel.) Brass electrodes were connected to either end of the steel cylinder. The coated flashbar was secured in an electrical mount, which connected to two 1.0 Farad capacitors in parallel. An airway was provided by a 2 cm diameter glass sleeve placed around the flashbar. 15 L/min of room air were pulled by a house vacuum through the vaporization chamber and a filter housing, which contained a two-micron Teflon filter. A power supply charged the capacitors to 20.5 volts, at which point the circuit was closed with a switch and the stainless steel flashbar was resistively heated to about 400° C. within about 200 milliseconds. The drug aerosolized and flowed through the airway and into the filter. The Teflon filter was extracted with 5 mL of acetonitrile, and the sample was run through an HPLC for purity analysis.
as §1, with “1.01” for “1.1”, “1.21” for “1.32”
About 1.09 mg of bumetanide (MW 364, melting point 231° C., oral dose 0.5 mg) was dip coated onto the stainless steel surface of a flashbar apparatus at a thickness of about 1.3 μm. (The flashbar is a cylinder 3.5 cm long and 1.3 cm in diameter consisting of a hollow tube of 0.005″ thick stainless steel.) Brass electrodes were connected to either end of the steel cylinder. The coated flashbar was secured in an electrical mount, which connected to two 1.0 Farad capacitors in parallel. […]

[2] = assay type: in vivo, Beagle dog
Source text: This example is meant to illustrate one way in which toxicology and pharmacokinetic data may be investigated with respect to the bumetanide condensation aerosols described herein. Toxicology and pharmacokinetic data may be gathered by studying daily oropharyngeal inhalation of bumetanide condensation aerosols over a 14 day period using a beagle dog model.
Before treatment initiation, all animals are weighed and assigned to treatment groups using a randomization procedure. Animals are assigned into the following groups: bumetanide high dose, bumetanide mid dose, bumetanide low dose, and vehicle control at 3 animals per sex per dose. The dose levels for bumetanide are generally approximately 0.1 mg/kg for the low dose group, 0.5 mg/kg for the mid dose group, and 2 mg/kg for the high dose group. The dose levels can be refined through an initial dose ranging toxicology study.
Animals are treated with the test aerosols using an oropharyngeal face mask fitted with inlet and outlet tubes. During treatment, animals are placed in a restraint sling. A mask that allows the inhalation of test material to dogs is used. The test article is generated by vaporizing bumetanide by heating to roughly 400° C. The bumetanide is an approximately 1 micron thick film coating on a stainless steel foil, which was deposited on the foil by dip coating the foil into a solution of bumetanide dissolved in organic solvent.
The resulting aerosol formed by the condensation of the vaporized bumetanide is introduced into a mixing chamber via pre-dried compressed air. The mixing chamber is operated under slight positive pressure maintained by means of a gate valve located in the exhaust line. A vacuum pump is used to exhaust the inhalation chamber at the required flow rate and draw the contaminated air (excess aerosol and expired air) through a purifying system consisting of a 5 μm coarse filter before expelling the air from the building. The resulting atmosphere is carried to the dog mask via a delivery tube.
To ensure that the doses are correct, prior to the start of the treatment each day, atmosphere characterization of the test article aerosol is performed. Analysis of the aerosol particle size distribution for each bumetanide dose is conducted using a Cascade Impactor. Typical mass median aerodynamic diameter and geometric standard deviation measured during the study are 1.5 μm±2. Actual mask output concentrations of aerosol are measured during each exposure day from a sampling port from the animal breathing zone.
The achieved dose of active ingredient (mg/kg/day) for each treatment level is determined as follows: Achieved Dose of Active Ingredient=[RMV×Active Concentration×T×D]/BW
Where the achieved dose of the active ingredient is in mg/kg/day; the RMV (i.e., respiratory minute volume) is in L/min; the Active Concentration (i.e., chamber concentration of active ingredient determined by chemical analysis) is in mg/L; T (i.e., treatment time) is in minutes; D is the total aerosol deposition fraction, according to the particle size; and BW (i.e., mean body weight per sex per group from the regular body weight occasions during treatment) is in kg.
Dogs are treated with the bumetanide aerosol using the above approach to deliver the drug aerosol and compute the delivered dose. The exposure period required to deliver a dose is typically approximately 10 minutes. Plasma samples for pharmacokinetic analysis are collected on one or more treatment days. Samples are typically collected pre-dose, 2 minutes into dosing, and the end of dosing, 20 minutes post dose, 1 hour post dose, 3 hours post dose, 9 hours post dose, and 24 hours post dose. Samples are analyzed by an appropriate method such as LC/MS or LC/MS/MS to determine the pharmacokinetics of bumetanide absorption and elimination. […]

Structure (SMILES): CCCCNc1cc(C(=O)O)cc(S(N)(=O)=O)c1Oc1ccccc1 [bumetanide]
- aerosol purity (HPLC) ([1]; film about 1.3 μm on stainless steel): 98.44%
- mass median aerodynamic diameter of the aerosol ([2]; Cascade Impactor, typical value during the study): 1.5 μm
- food consumption ([2]; dog, in vivo): roughly normal
- gross pathology at necropsy ([2]; dog, in vivo): No treatment related findings
- histopathological examination of gross lesions ([2]; dog, in vivo): no treatment related findings
- histopathological examination of larynx, trachea, mainstem bronchi, lungs ([2]; dog, in vivo): No treatment related abnormalities are observed
- time of peak plasma levels ([2]; dog, in vivo): ≤ 10 min
- duration of the increase in urination following treatment ([2]; dog, inhalation): approximately 4 hour
- urination immediately following drug administration ([2]; dog, inhalation): an increase in urination is noted

- aerosol purity (HPLC) ([1]; film about 1.21 μm on stainless steel): 99.57%
- aerosol purity (HPLC) ([1]; film about 1.32 μm on stainless steel): 99.83%
Structure (SMILES): C=C(CC)C(=O)c1ccc(OCC(=O)O)c(Cl)c1Cl [ethacrynic acid]

- aerosol purity (HPLC) ([1]; film about 0.85 μm on stainless steel): 100%
- aerosol purity (HPLC) ([1]; film about 1.01 μm on stainless steel): 100%
Structure (SMILES): CC(=O)S[C@@H]1CC2=CC(=O)CC[C@]2(C)[C@H]2CC[C@@]3(C)[C@@H](CC[C@@]34CCC(=O)O4)[C@H]12 [spironolactone]

- aerosol purity (HPLC) ([1]; film about 0.97 μm, from 88% formic acid): 99.76%
- aerosol purity (HPLC) ([1]; film about 1.11 μm, manually coated): 100%
Structure (SMILES): Nc1nc(N)c2nc(-c3ccccc3)c(N)nc2n1 [triamterene]
